{"source": "patent US9580430B2", "about": "“9H-pyrimido[4,5-B]indoles and related analogs as BET bromodomain inhibitors” (THE REGENTS OF THE UNIVERSITY OF MICHIGAN, priority 2014, dated 2017)", "key": {"[1]": {"test_system": "VCaP xenograft model", "assay": "Spontaneous metastasis in the VCaP xenograft model (human Alu qPCR)", "assay_type": "in vivo, mice", "details": "femur, liver and spleen; JQ1 50 mg/kg, MDV3100 10 mg/kg", "experimental": "Four week-old male SCID C.B17 mice were procured from a breeding colony at University of Michigan. All procedures involving mice were approved by the University Committee on Use and Care of Animals (UCUCA) at the University of Michigan and conform to all regulatory standards. Mice were anesthetized using 2% Isoflurane (inhalation) and 2×10^6 VCaP prostate cancer cells suspended in 100 μl of PBS with 50% Matrigel (BD Biosciences) were implanted subcutaneously into the dorsal flank on both sides of the mice. […] Growth in tumor volume was recorded using digital calipers and tumor volumes were estimated using the formula (π/6) (L×W^2), where L=length of tumor and W=width. Loss of body weight during the course of the study was also monitored. At the end of the studies mice were sacrificed and tumors extracted and weighed. Additionally, femur bone marrow, liver and spleen were harvested to examine spontaneous metastasis by detecting human-Alu sequence. […] All procedures involving mice were approved by the University Committee on Use and Care of Animals (UCUCA) at the University of Michigan and conform to all regulatory standards."}, "[2]": {"test_system": "MYC signature", "assay": "Gene expression array, GSEA of MYC signature, 22RV1", "assay_type": "cell-based", "details": "22RV1 after JQ1 treatment", "experimental": "Cells treated with only vehicle or 10 nM DHT served as controls. […] Expression profiling was performed using the Agilent Whole Human Genome Oligo Microarray (SantaClara, Calif.) according to the manufacturer's protocol. All samples were run in technical duplicates or quadruplets against control. Over- and under-expressed gene sets were generated by filtering to include only 2-fold average over- or underexpression (Log ratio with p<0.001) in all hybridizations."}, "[3]": {"test_system": "5 prostate cancer and 1 benign prostate cell line", "assay": "Cell viability assay, panel of prostate cell lines (Cell-Titer GLO)", "assay_type": "cell-based", "details": "three of the AR-signaling positive cells; FIG. 1", "experimental": "VCaP prostate cancer cells were grown in DMEM with Glutamax (Gibco), LNCaP, 22RV1, DU145 and PC3 prostate cancer cell lines were grown in RPMI 1640, all were supplemented with 10% FBS (Invitrogen) in 5% CO2 cell culture incubator. The immortalized benign prostate cell line RWPE-1 was grown in keratinocyte media with supplements (Lonza). All cell lines were tested and found to be free of mycoplasma contamination.\n(§1) Cells were seeded in 96-well plates at 2000-10,000 cells/well (optimum density for growth) in a total volume of 100 μl media containing 10% FBS. Serially diluted compounds in 100 μl media were added to the cells 12 h later. Following 96 h. incubation, cell viability was assessed by Cell-Titer GLO (Promega). The values were normalized and IC50 was calculated using GraphPad Prism software. […] After 12 days cells were fixed with methanol, stained with crystal violet and photographed. For colorimetric assays, the stained wells were treated with 500 μl 10% acetic acid and the absorbance was measured at 560 nm using a spectrophotometer."}, "[4]": {"test_system": "VCaP or LNCaP cells", "assay": "Matrigel invasion assay, VCaP or LNCaP cells", "assay_type": "cell-based", "details": "500 nM", "experimental": "Medium containing 10% FBS in the lower chamber served as chemoattractant. […] After 48 h, the non-invading cells and EC matrix were gently removed with a cotton swab and invasive cells located on the lower side of the chamber were stained with crystal violet, air dried, photographed and counted."}, "[5]": {"test_system": "PSA and ERG", "assay": "QRT-PCR and immunoblot of AR-target genes in VCaP", "assay_type": "cell-based", "details": "VCaP cells; FIGS. 4 and 5", "experimental": "Total RNA was isolated from cells using RNeasy Mini Kit (Qiagen) and cDNA was synthesized from 1,000 ng total RNA using SuperScript III First-Strand Synthesis SuperMix (Invitrogen). QPCRs were performed in duplicate or triplicate using Taqman assays (Applied Biosystems) or standard SYBR green reagents and protocols on a StepOnePlus Real-Time PCR system (Applied Biosystems). The target mRNA expression was quantified using ΔΔCt method and normalized to GAPDH expression. All primers were designed using Primer 3 (http://frodo.wi.mit.edu/primer3/) and synthesized by Integrated DNA Technologies (Coralville, Iowa).\n(§2) For Western blot analysis, 200 ug total protein extract was boiled in sample buffer and 10-20 μg aliquots were separated by SDS-PAGE and transferred onto Polyvinylidene Difluoride membrane (GE Healthcare). The membrane was incubated for one hour in blocking buffer [Tris-buffered saline, 0.1% Tween (TBS-T), 5% nonfat dry milk] followed by incubation overnight at 4° C. with the primary antibody. Following a wash with TBS-T, the blot was incubated with horseradish peroxidase-conjugated secondary antibody and signals were visualized by enhanced chemiluminescence system as per manufacturer's protocol (GE Healthcare)."}, "[6]": {"test_system": "VCaP prostate cancer cells", "assay": "Cell growth inhibition, VCaP prostate cancer cells (Cell-Titer GLO)", "assay_type": "cell-based", "details": "8 days; FIG. 22", "experimental": "For prostate cancer cell lines, VCaP prostate cancer cells were grown in DMEM with Glutamax (Gibco) supplemented with 10% FBS (Invitrogen) in 5% CO2 cell culture incubator. All cell lines were tested and found to be free of mycoplasma contamination. Cells were seeded in 96-well plates at 2,000-10,000 cells per well (optimum density for growth) in a total volume of […] media containing 10% FBS. Serially diluted compounds in […] media were added to the cells 12 h later. […] The values were normalized and IC50 was calculated using GraphPad Prism software.\nas §1"}, "[7]": {"test_system": "AR-positive cells", "assay": "Cell cycle analysis and apoptosis (cleaved PARP immunoblot)", "assay_type": "cell-based", "details": "FIG. 2", "experimental": "For cell cycle analysis, cells were washed 48 h post-treatment with PBS and fixed in 70% ethanol overnight. The cells were washed again with PBS, stained with propidium iodide and analyzed by flow cytometry.\nas §2"}, "[8]": {"test_system": "AR", "assay": "ChIP-seq of AR in DHT-stimulated VCaP cells", "assay_type": "cell-based", "details": "DHT 10 nM plus JQ1 500 nM, MDV3100 10 μM or Bicalutamide 25 μM, FIG. 17", "experimental": "The ChIP assays for BRD2, BRD3, BRD4, AR, RNA PolII, ERG and H3K27ac were performed using HighCell ChIP kit (Diagenode) according to manufacturer's protocol. […] Next, cells were cross-linked for 10 min. with 1% formaldehyde. […] Chromatin equivalent to 5×10^6 cells were used for ChIP using different antibodies. ChIP DNA was isolated (IPure Kit, Diagenode) from samples by incubation with the antibody at 4° C. overnight followed by wash and reversal of cross-linking. The ChIP-seq sample preparation for sequencing was performed according to the manufacturer's instructions (Illumina). […] A single A-base was added to fragment ends by Klenow fragment (3′ to 5′ exo minus; NEB) followed by ligation of Illumina adaptors (Quick ligase, NEB). The adaptor-modified DNA fragments were enriched by PCR using the Illumina Barcode primers and Phusion DNA polymerase (NEB). PCR products were size selected using 3% NuSieve agarose gels (Lonza) followed by gel extraction using QIAEX II reagents (QIAGEN). Libraries were quantified with the Bioanalyzer 2100 (Agilent) and sequenced on the Illumina HiSeq 2000 Sequencer (100 nucleotide read length).\nFor enrichment plots shown in FIGS. 17, 19 and 20, identified peaks for each sample are centered by peak summit and average coverage per million was counted within 1500 bp relative to the peak center."}}, "data": [{"smiles": "Cc1sc2c(c1C)C(c1ccc(Cl)cc1)=N[C@@H](CC(=O)OC(C)(C)C)c1nnc(C)n1-2", "note": "[JQ1]", "values": [{"measurement": "spontaneous metastasis", "setting": "[1]", "value": "no evidence of metastasis"}, {"measurement": "NES", "setting": "[2]; gene set MYC_UP.V1_UP", "value": "−1.712"}, {"measurement": "NES", "setting": "[2]; gene set SCHLOSSER_MYC_AND_SERUM_RESPONSE_SYNERGY", "value": "−1.521"}, {"measurement": "NES", "setting": "[2]; gene set SCHLOSSER_MYC_TARGETS_AND_SERUM_RESPONSE_UP", "value": 1.353}, {"measurement": "NES", "setting": "[2]; gene set SCHUHMACHER_MYC_TARGETS_UP", "value": "−1.851"}, {"measurement": "sensitivity of prostate cell lines", "setting": "[3]", "value": "sensitive"}, {"measurement": "cell invasion", "setting": "[4]", "value": "inhibited invasion"}, {"measurement": "PSA and ERG mRNA and protein level", "setting": "[5]", "value": "dose-dependent decrease in PSA and ERG"}, {"measurement": "VCaP cell viability in vitro", "setting": "[6]", "value": "suppression of cell growth at sub-micromolar concentrations"}, {"measurement": "cell cycle arrest and apoptosis", "setting": "[7]", "value": "induced G0-G1 arrest, apoptosis"}, {"measurement": "recruitment of AR to target loci", "setting": "[8]", "value": "block AR recruitment to a level almost equivalent to MDV3100"}]}]}
